According to patent US9884040B2, “Desethylamiodarone for use in cancer treatment” (PÉCSI TUDOMÁNYEGYETEM, priority 2015, dated 2018):

Legend:
[1] = system: B16F10 (mice melanoma) cells; experiment: MTT cell viability assay, B16F10; format: cell-based; conditions: 24 h and 48 h; 2.5, 5, 7.5 or 10 μM; vs untreated control
Experimental: The cells were seeded into 96-well plates at a starting density of 10^4 cells per well and cultured overnight before DEA was added to the medium for 24 h and 48 h. […] The amount of blue formazan dye formed from MTT+ was proportional to the number of live cells, and was determined with an Anthos Labtech 2010 ELISA reader at 550 nm. All experiments were run in at least 4 replicates and repeated 3 times. The effect of desethylamiodarone was measured in T24 (human urinary bladder carcinoma), A549 (human lung adenocarcinoma epithelial), B16F10 (mice melanoma), HeLa (human cervix adenocarcinoma), 4T1 (mouse mammary carcinoma) cell lines. Cells were treated with increasing concentrations of desethylamiodarone for 24 and 48 h. Cell growth was assessed by measuring metabolic activity, which reflects viability in the MTT-test in the course of 24 h, 48 h of continued exposure to desethylamiorarone. The untreated cells served as negative controls. The viability of the cells, was lower in all DEA-treated than in the control group, with the difference being statistically significant. […] B16F10 cells were incubated with the indicated concentrations (2.5, 5, 7.5 or 10 μM) of desethylamiodarone for 24 h (A) and 48 h (B) and cell viability was measured by MTT assay (filled bars). Untreated cells served as controls. […]

[2] = system: 4T1 (mouse mammary carcinoma) cells; experiment: MTT cell viability assay, 4T1; format: cell-based; conditions: 24 h and 48 h; 2.5, 5, 7.5 or 10 μM; vs untreated control
Experimental: The cells were seeded into 96-well plates at a starting density of 10^4 cells per well and cultured overnight before DEA was added to the medium for 24 h and 48 h. […] The amount of blue formazan dye formed from MTT+ was proportional to the number of live cells, and was determined with an Anthos Labtech 2010 ELISA reader at 550 nm. All experiments were run in at least 4 replicates and repeated 3 times. The effect of desethylamiodarone was measured in T24 (human urinary bladder carcinoma), A549 (human lung adenocarcinoma epithelial), B16F10 (mice melanoma), HeLa (human cervix adenocarcinoma), 4T1 (mouse mammary carcinoma) cell lines. Cells were treated with increasing concentrations of desethylamiodarone for 24 and 48 h. Cell growth was assessed by measuring metabolic activity, which reflects viability in the MTT-test in the course of 24 h, 48 h of continued exposure to desethylamiorarone. The untreated cells served as negative controls. The viability of the cells, was lower in all DEA-treated than in the control group, with the difference being statistically significant. […] 4T1 cells were incubated with the indicated concentrations (2.5, 5, 7.5 or 10 μM) of desethylamiodarone for 24 h and 48 h and cell viability was measured by MTT assay (filled bars). Untreated cells served as controls. Data represent means±S.E.M. of three independent experiments, each running in four replicates.

[3] = system: HeLa (human cervix adenocarcinoma) cells; experiment: MTT cell viability assay, HeLa; format: cell-based; conditions: increasing concentrations, 24 and 48 h
Experimental: (§1) The cells were seeded into 96-well plates at a starting density of 10^4 cells per well and cultured overnight before DEA was added to the medium for 24 h and 48 h. The medium was changed to a fresh one containing 0.5% of 3-[4,5-dimethylthiazol-2-yl]-2,5-diphenyl-tetrazolium bromide (MTT+) for an additional 3 hours, then the MTT+ reaction was terminated by adding HCl to 10 mM final concentration. The amount of blue formazan dye formed from MTT+ was proportional to the number of live cells, and was determined with an Anthos Labtech 2010 ELISA reader at 550 nm. All experiments were run in at least 4 replicates and repeated 3 times.
The effect of desethylamiodarone was measured in T24 (human urinary bladder carcinoma), A549 (human lung adenocarcinoma epithelial), B16F10 (mice melanoma), HeLa (human cervix adenocarcinoma), 4T1 (mouse mammary carcinoma) cell lines. Cells were treated with increasing concentrations of desethylamiodarone for 24 and 48 h. Cell growth was assessed by measuring metabolic activity, which reflects viability in the MTT-test in the course of 24 h, 48 h of continued exposure to desethylamiorarone. The untreated cells served as negative controls. The viability of the cells, was lower in all DEA-treated than in the control group, with the difference being statistically significant.

[4] = system: MCF 7 breast cancer cell line; experiment: MTT cell viability assay, MCF 7; format: cell-based; conditions: increasing concentrations, 24, 48 and 72 hours
Experimental: as §1
MCF 7 cells were exposed to increasing concentrations of DEA for 24, 48 and 72 hours. Viability of the cells was detected by the MTT method. Untreated cells served as controls.

[5] = system: T24 human bladder cancer cell line; experiment: Radiotherapy plus DEA, colony formation, T24; format: cell-based; conditions: 1Gy or 2Gy single dose alone or with 500 nM-3 μM DEA
Experimental: Cells were trypsinized and plated in triplicate into 6-well plates at 500 cells/well. Cells were treated with different concentration of DEA and irradiated with a dose of 1.0 and 2.0 Grays. A telecobalt (Therathron 780 C) external irradiation equipment (average photon energy of 1.25 MeV) will be applied for irradiating cells. After 7 days of incubation, cells were washed and stained with Coomassie-blue, and the colonies containing more than 50 cells were counted. The number of colonies were determined and normalized to the number of colonies in controls.
To examine the effects of a DEA on the effectiveness of radiotherapy the cells were treated with 1Gy or 2Gy single dose irradiation alone or combined with 500 nM-3 μM DEA.
The cells were treated with 1Gy or 2Gy single dose irradiation alone or combined with 500 nM-3 μM DEA. Untreated cells served as controls. The results are mean±SEM of 3 independent experiments performed in at least quadruplicate. P<0.05 compared to the corresponding control group.

[6] = after administration of amiodarone; cited from earlier work
[7] = repetitive exposures; cited from earlier work

## CCCCc1oc2ccccc2c1C(=O)c1cc(I)c(OCCNCC)c(I)c1 [DEA, (2-butyl-3-benzofuranyl)[4-[2-(ethylamino)ethoxy]-3,5-diiodophenyl]-methanone]
[1]
  Viability of B16F10 cells (MTT): Significantly different from control group at p<0.01
[2]
  Viability of 4T1 cells (MTT): Significantly different from control group at p<0.05
[3]
  Viability of HeLa cells (MTT): significantly inhibited the viability
[4]
  Viability of MCF 7 cells (MTT): induces cell death
[5]
  Radiosensitization, colony formation, T24: sensitize bladder cancer to irradiation
[6]
  Concentration in the lungs: can reach mM concentrations
[7]
  Drug accumulation in cell cultures: always higher than that of AM
